Laboratory results: article PMC8662641, “Site-Specific Labeling of Endogenous Proteins Using CoLDR Chemistry” (Journal of the American Chemical Society, 2021)

System: Mino cells
Experiment: Pull-down proteomics in Mino cells
Format: cell-based, human
Protocol: The cells were lysed and “clicked” with biotin-azide, and the samples were incubated at room temperature for 1 h. The samples were then precipitated with methanol–chloroform (1 mL of methanol, 250 μL of chloroform, 750 μL of water), washed with 1 mL of methanol, and air-dried. The samples were solubilized, bound to streptavidin agarose beads in PBS for 3 h at 25 °C. The beads were washed, centrifuged, resuspended in Tris 50 mM pH 8, and transferred to a clean Eppendorf tube. After this, the bound proteins were eluted by boiling with 5% SDS then reduced with DTT, alkylated with iodoacetamide, and digested with trypsin. The samples were run on LC/MS/MS. The detailed procedure is available in the Supplementary Methods Section. […]
Pull-down proteomics experiments
1b or DMSO. The cells were spun down, washed with cold PBS and frozen. Then, each sample was lysed in 200 ul of RIPA for 15 minutes on ice and centrifuged at 20000 g at 4 °C. The protein in the supernatant was quantified using BCA. For each sample, […] of 1.65 mg/ml was prepared.
At this point, 5 ul of 5 mM biotin azide and 9 ul of 100 mM CuSO4:THPTA complex were added.
The click reaction was initiated by the addition of 7.5 ul of 150 mM sodium ascorbate, and the samples are incubated at room temperature for 1 hour. The samples were then precipitated with methanol: chloroform (1 ml methanol, 250 l chloroform, 750 l water), washed with 1 ml of methanol, and air dried. The dry pellet was resuspended in 1.2% SDS in PBS (250 l), sonicated as described before, and heated to 90 °C for 5 minutes. The samples were then diluted to 1.5 ml with PBS, and 50 ul of streptavidin agarose beads, prewashed with 0.2% SDS in PBS, were added, followed by 3 hour incubation at room temperature. Following the incubation, the beads were centrifuged 2 minutes 2000 g, and washed 4 times, with the following buffers (4 ml in each wash):
2% SDS; 0.1% sodium deoxycholate, 1% Triton X-100, 0.5 M NaCl, 1 mM EDTA, 50 mM HEPES pH = 7.5; 0.25 M NaCl, 0.5% IGEPAL, 0.5% sodium deoxycholate, 1 mM EDTA, 10 mM Tris pH = 8.1; 50 mM Tris pH = 7.4, 50 mM NaCl. The beads were then resuspended in Tris 50 mM pH = 8 and transferred to a clean Eppendorf tube.
At this point, the buffer was removed to leave a volume of 100 ul, and 100 ul of Tris 50 mM pH 8 + 10% SDS was added, and the samples were heated to 96 °C for 5 minutes. The samples were then centrifuged and the denatured, eluted proteins were transferred to new tubes. Then, 7.5 ul of 0.1 M DTT was added, and samples were incubated at 65 °C for 45 minutes. After the samples had cooled, 7.5 ul of iodoacetamide (0.2 M) were added, and the samples were incubated in the dark for 40 minutes at room temperature. At this point 1/10 volume of 12% phosphoric acid was added, and the samples were diluted 6-fold with 90% methanol + 50 mM ammonium bicarbonate. The samples were then loaded on s-trap micro columns (Protify) and the columns […]
were washed 3 times with 150 ul of 90% methanol + 50 mM ammonium bicarbonate. Then, 20 ul of 0.05 g/l of trypsin in 50 mM ammonium bicarbonate were added to the columns, and the samples were incubated at 47 °C for 90 minutes. Then 40 ul of 50 mM ammonium bicarbonate was added, followed by centrifugation and addition of 1 ul of 0.5 g/l trypsin to the eluate, which was incubated at 37C overnight. The column itself was then eluted using 40 ul of 0.2% formic acid and 40 ul 0.2% formic acid in 50% acetonitrile into a separate tube, which was kept at 4 °C. The two eluates were then combined and evaporated before running on LC/MS/MS.
Running samples on LC/MS/MS:
ULC/MS grade solvents were used for all chromatographic steps. Each sample was loaded using split-less nano-Ultra Performance Liquid Chromatography (10 kpsi nanoAcquity; Waters, Milford, MA, USA). The mobile phase was: A) H2O + 0.1% formic acid and B) acetonitrile + 0.1% formic acid. Desalting of the samples was performed online using a reversed-phase Symmetry C18 […]

## C#CCCNC(=O)C(=C)CN1CCC[C@@H](n2nc(-c3ccc(Oc4ccccc4)cc3)c3c(N)ncnc32)C1 [1b]
ACACA_HUMAN group, 1b relative to pretreatment by ibrutinib
  Log2(fold enrichment): 0.4315
ACACA_HUMAN group, 1b relative to treatment with DMSO
  Log2(fold enrichment): -0.2749
ACTG_HUMAN group, 1b relative to pretreatment by ibrutinib
  Log2(fold enrichment): 0.2725
ACTG_HUMAN group, 1b relative to treatment with DMSO
  Log2(fold enrichment): 0.2915
ALDOA_HUMAN, 1b relative to pretreatment by ibrutinib
  Log2(fold enrichment): 0.4926
ALDOA_HUMAN, 1b relative to treatment with DMSO
  Log2(fold enrichment): 0.06327
ANXA2_HUMAN group, 1b relative to pretreatment by ibrutinib
  Log2(fold enrichment): -0.9011
ANXA2_HUMAN group, 1b relative to treatment with DMSO
  Log2(fold enrichment): 0.8548
B3GT4_HUMAN, 1b relative to pretreatment by ibrutinib
  Log2(fold enrichment): 0.1405
B3GT4_HUMAN, 1b relative to treatment with DMSO
  Log2(fold enrichment): 2.2518
CAD15_HUMAN, 1b relative to pretreatment by ibrutinib
  Log2(fold enrichment): -2.753
CAD15_HUMAN, 1b relative to treatment with DMSO
  Log2(fold enrichment): -0.7397
CRERF_HUMAN, 1b relative to pretreatment by ibrutinib
  Log2(fold enrichment): -0.1083
CRERF_HUMAN, 1b relative to treatment with DMSO
  Log2(fold enrichment): -0.06839
CX062_HUMAN, 1b relative to pretreatment by ibrutinib
  Log2(fold enrichment): 3.426
CX062_HUMAN, 1b relative to treatment with DMSO
  Log2(fold enrichment): 2.336
CYB5B_HUMAN, 1b relative to pretreatment by ibrutinib
  Log2(fold enrichment): 4.3203
CYB5B_HUMAN, 1b relative to treatment with DMSO
  Log2(fold enrichment): 3.916
CYFP1_HUMAN, 1b relative to pretreatment by ibrutinib
  Log2(fold enrichment): 5.178
CYFP1_HUMAN, 1b relative to treatment with DMSO
  Log2(fold enrichment): 4.841
DCD_HUMAN, 1b relative to pretreatment by ibrutinib
  Log2(fold enrichment): 0.833
DCD_HUMAN, 1b relative to treatment with DMSO
  Log2(fold enrichment): 3.261
DESP_HUMAN, 1b relative to pretreatment by ibrutinib
  Log2(fold enrichment): -0.03598
DESP_HUMAN, 1b relative to treatment with DMSO
  Log2(fold enrichment): 1.065
DSC1_HUMAN, 1b relative to pretreatment by ibrutinib
  Log2(fold enrichment): -0.2037
DSC1_HUMAN, 1b relative to treatment with DMSO
  Log2(fold enrichment): 0.5233
DSG1_HUMAN, 1b relative to pretreatment by ibrutinib
  Log2(fold enrichment): -0.7862
DSG1_HUMAN, 1b relative to treatment with DMSO
  Log2(fold enrichment): 1.658
EF1A3_HUMAN group, 1b relative to pretreatment by ibrutinib
  Log2(fold enrichment): 0.1605
EF1A3_HUMAN group, 1b relative to treatment with DMSO
  Log2(fold enrichment): 0.3209
ELAF_HUMAN, 1b relative to pretreatment by ibrutinib
  Log2(fold enrichment): -0.07576
ELAF_HUMAN, 1b relative to treatment with DMSO
  Log2(fold enrichment): 3.288
ENOA_HUMAN, 1b relative to pretreatment by ibrutinib
  Log2(fold enrichment): 0.1924
ENOA_HUMAN, 1b relative to treatment with DMSO
  Log2(fold enrichment): 0.2037
EP400_HUMAN, 1b relative to pretreatment by ibrutinib
  Log2(fold enrichment): 1.834
EP400_HUMAN, 1b relative to treatment with DMSO
  Log2(fold enrichment): -0.06967
FABP5_HUMAN, 1b relative to pretreatment by ibrutinib
  Log2(fold enrichment): -0.02939
FABP5_HUMAN, 1b relative to treatment with DMSO
  Log2(fold enrichment): 1.253
G3P_HUMAN, 1b relative to pretreatment by ibrutinib
  Log2(fold enrichment): 0.2104
G3P_HUMAN, 1b relative to treatment with DMSO
  Log2(fold enrichment): 0.2112
GRAH_HUMAN, 1b relative to pretreatment by ibrutinib
  Log2(fold enrichment): -0.3838
GRAH_HUMAN, 1b relative to treatment with DMSO
  Log2(fold enrichment): 1.151
GSTP1_HUMAN, 1b relative to pretreatment by ibrutinib
  Log2(fold enrichment): 0.8097
GSTP1_HUMAN, 1b relative to treatment with DMSO
  Log2(fold enrichment): 1.004
HS90B_HUMAN group, 1b relative to pretreatment by ibrutinib
  Log2(fold enrichment): 0.4589
HS90B_HUMAN group, 1b relative to treatment with DMSO
  Log2(fold enrichment): 0.7364
HSP7C_HUMAN, 1b relative to pretreatment by ibrutinib
  Log2(fold enrichment): 0.6921
HSP7C_HUMAN, 1b relative to treatment with DMSO
  Log2(fold enrichment): 0.6391
K2C6B_HUMAN, 1b relative to pretreatment by ibrutinib
  Log2(fold enrichment): -0.8867
K2C6B_HUMAN, 1b relative to treatment with DMSO
  Log2(fold enrichment): 0.6152
KPYM_HUMAN, 1b relative to pretreatment by ibrutinib
  Log2(fold enrichment): 0.1731
KPYM_HUMAN, 1b relative to treatment with DMSO
  Log2(fold enrichment): 1.135
LDHA_HUMAN, 1b relative to pretreatment by ibrutinib
  Log2(fold enrichment): 0.2369
LDHA_HUMAN, 1b relative to treatment with DMSO
  Log2(fold enrichment): -0.2458
LEG9C_HUMAN group, 1b relative to pretreatment by ibrutinib
  Log2(fold enrichment): 1.455
LEG9C_HUMAN group, 1b relative to treatment with DMSO
  Log2(fold enrichment): -0.9819
MCCA_HUMAN, 1b relative to pretreatment by ibrutinib
  Log2(fold enrichment): 0.4599
MCCA_HUMAN, 1b relative to treatment with DMSO
  Log2(fold enrichment): -0.3745
MMRN2_HUMAN, 1b relative to pretreatment by ibrutinib
  Log2(fold enrichment): -0.0371
MMRN2_HUMAN, 1b relative to treatment with DMSO
  Log2(fold enrichment): 0.08276
Mino cells, 100 nM 1b
  off-targets found in pull-down proteomics: BLK, MCAT, and ADK
NEUM_HUMAN, 1b relative to pretreatment by ibrutinib
  Log2(fold enrichment): 2
NEUM_HUMAN, 1b relative to treatment with DMSO
  Log2(fold enrichment): 0.3281
NPM_HUMAN, 1b relative to pretreatment by ibrutinib
  Log2(fold enrichment): 1.109
NPM_HUMAN, 1b relative to treatment with DMSO
  Log2(fold enrichment): 0.4515
PIP_HUMAN, 1b relative to pretreatment by ibrutinib
  Log2(fold enrichment): 0.6558
PIP_HUMAN, 1b relative to treatment with DMSO
  Log2(fold enrichment): -0.01924
PLAK_HUMAN, 1b relative to pretreatment by ibrutinib
  Log2(fold enrichment): 0.152
PLAK_HUMAN, 1b relative to treatment with DMSO
  Log2(fold enrichment): 1.616
PRDX2_HUMAN group, 1b relative to pretreatment by ibrutinib
  Log2(fold enrichment): -0.09254
PRDX2_HUMAN group, 1b relative to treatment with DMSO
  Log2(fold enrichment): -0.2676
REL_HUMAN, 1b relative to pretreatment by ibrutinib
  Log2(fold enrichment): 1.348
REL_HUMAN, 1b relative to treatment with DMSO
  Log2(fold enrichment): -0.2147
RL13_HUMAN, 1b relative to pretreatment by ibrutinib
  Log2(fold enrichment): 0.7491
RL13_HUMAN, 1b relative to treatment with DMSO
  Log2(fold enrichment): 0.2396
RL15_HUMAN, 1b relative to pretreatment by ibrutinib
  Log2(fold enrichment): 0.2388
RL15_HUMAN, 1b relative to treatment with DMSO
  Log2(fold enrichment): 0.9031
RL18_HUMAN, 1b relative to pretreatment by ibrutinib
  Log2(fold enrichment): 0.6086
RL18_HUMAN, 1b relative to treatment with DMSO
  Log2(fold enrichment): -0.373
RL40_HUMAN group, 1b relative to pretreatment by ibrutinib
  Log2(fold enrichment): -1.022
RL40_HUMAN group, 1b relative to treatment with DMSO
  Log2(fold enrichment): 0.218
S10A8_HUMAN, 1b relative to pretreatment by ibrutinib
  Log2(fold enrichment): 0.2414
S10A8_HUMAN, 1b relative to treatment with DMSO
  Log2(fold enrichment): 0.2312
S10A9_HUMAN, 1b relative to pretreatment by ibrutinib
  Log2(fold enrichment): 0.07875
S10A9_HUMAN, 1b relative to treatment with DMSO
  Log2(fold enrichment): 2.006
SYFM_HUMAN, 1b relative to pretreatment by ibrutinib
  Log2(fold enrichment): 0.9276
SYFM_HUMAN, 1b relative to treatment with DMSO
  Log2(fold enrichment): -1.069
TBA1B_HUMAN group, 1b relative to pretreatment by ibrutinib
  Log2(fold enrichment): 0.8267
TBA1B_HUMAN group, 1b relative to treatment with DMSO
  Log2(fold enrichment): 1.164
TBB5_HUMAN group, 1b relative to pretreatment by ibrutinib
  Log2(fold enrichment): 1.023
TBB5_HUMAN group, 1b relative to treatment with DMSO
  Log2(fold enrichment): 0.6602
TGM3_HUMAN, 1b relative to pretreatment by ibrutinib
  Log2(fold enrichment): -0.2702
TGM3_HUMAN, 1b relative to treatment with DMSO
  Log2(fold enrichment): 0.4648
THIO_HUMAN, 1b relative to pretreatment by ibrutinib
  Log2(fold enrichment): 0.6478
THIO_HUMAN, 1b relative to treatment with DMSO
  Log2(fold enrichment): 0.5583
TPIS_HUMAN, 1b relative to pretreatment by ibrutinib
  Log2(fold enrichment): 1.866
TPIS_HUMAN, 1b relative to treatment with DMSO
  Log2(fold enrichment): 2.762
VDAC2_HUMAN, 1b relative to pretreatment by ibrutinib
  Log2(fold enrichment): 0.298
VDAC2_HUMAN, 1b relative to treatment with DMSO
  Log2(fold enrichment): 2.794
ZNT4_HUMAN, 1b relative to pretreatment by ibrutinib
  Log2(fold enrichment): 0.6391
ZNT4_HUMAN, 1b relative to treatment with DMSO
  Log2(fold enrichment): 0.7876
